Each compound was assayed on Phakopsora pachyrhizi (assay: Example G2: curative activity against soybean rust caused by Phakopsora pachyrhizi (greenhouse)). Settings: 600 ppm; soybean seedlings, curative spray two days after inoculation, assessed after a further 10 days; untreated plants 100% infected.
Type: in vivo

Question: CC(Cc1cc(F)ccc1F)CC(C(O)C(C)(C)C)n1cncn1 (mixture of isomers) [I.A26b] was tested. Which infection did it give?
Answer: The infection was 0%.

Question: For CC(C)(C)C(O)C(CCCc1cc(F)ccc1F)n1cncn1 (racemic) [I.A24b], which infection is on record?
Answer: Its infection is 0%.

Question: How did the infection turn out when CC(Cc1ccc(F)cc1F)CC(C(O)C(C)(C)C)n1cncn1 (stereo not shown) [I.A30b, 7-(2,4-difluorophenyl)-2,2,6-trimethyl-4-[1,2,4]triazol-1-ylheptan-3-ol] was run?
Answer: The infection was 0%.

Question: CC(C)(C)C(O)C(CCCc1cccc(F)c1F)n1cncn1 (racemic) [I.A25b] was tested. Which infection did it give?
Answer: The infection was 0%.

Question: CC(CCC(C(O)C(C)(C)C)n1cncn1)c1ccccc1F (mixture of isomers) [I.A36b] was tested. Which infection did it give?
Answer: Its infection is 0%.

Question: CC(Cc1cccc(Cl)c1)CC(C(O)C(C)(C)C)n1cncn1 (mixture of isomers) [I.A39a] was tested. Which infection did it give?
Answer: The infection was 0%.

Question: For CC(Cc1ccc(F)cc1F)CC(C(O)C(C)(C)C)n1cncn1 (mixture of isomers) [I.A30a], which infection is on record?
Answer: The infection was 0%.

The compounds below were run on Phytophthora infestans (assay: not given). Settings: tomato, protective, after 6 days, untreated control 90.
Type: in vivo

Question: Which “Infection (%) at 600 ppm C1” value does the source give for CC(C)(C)C(O)C(CCCc1ccc(Cl)cc1Cl)n1cncn1 (stereo not shown) here?
Answer: The value was 7%.

Question: How did the “Infection (%) at 600 ppm C1” value turn out when CC(Cc1ccc(Cl)cc1Cl)CC(C(O)C(C)(C)C)n1cncn1 (stereo not shown) [reference compound] was run?
Answer: Its value is 90%.

The compounds below were run on Botrytis cinerea (assay: C2: gray mold on bell pepper leaves caused by Botrytis cinerea, 1 day protective application (comparison with the prior art)). Settings: after 5 days, untreated control 100.
Type: in vivo
Experimental: The active compounds were prepared separately as a stock solution with 25 mg of active compound, which was made up to 10 ml with a mixture of acetone and/or DMSO and the emulsifier Uniperol® EL (wetting agent with emulsifying and dispersing action based on ethoxylated alkylphenols) in the volume ratio solvent/emulsifier of from 99 to 1. Subsequently, it was made up to 100 ml with water. This stock solution was diluted with the described solvent/emulsifier/water mixture to the active compound concentration indicated below. Alternatively, the active compounds were used as a commercially available ready-to-use solution and diluted with water to the active compound concentration indicated. Bell pepper seedlings were, after 2-3 leaves were well developed, sprayed to run off point with an aqueous suspension having the active compound concentration stated below. The next day, the treated plants were inoculated with a spore suspension of Botrytis cinerea in a 2% biomalt solution. The test plants were then placed in a dark acclimatized chamber at 22 to 24° C. and high atmospheric humidity. After 5 days, the extent of the fungal infection on the leaves could be determined visually in %.

Question: CC(C)(C)C(O)C(CCCc1ccc(Cl)cc1)n1cncn1 (stereo not shown) [reference compound] was tested. Which “Infection (%) at 600 ppm C2” value did it give?
Answer: The value was 70%.

Question: For CC(C)(C)C(O)C(CCCc1ccccc1Cl)n1cncn1 (stereo not shown) [drawing 21], which “Infection (%) at 600 ppm C2” value is on record?
Answer: Its value is 10%.

Question: With CC(C)(C)C(O)C(CCCc1ccccc1Cl)n1cncn1 (stereo not shown) [drawing 19] as the compound, how does the “Infection (%) at 600 ppm C2” value read?
Answer: Its value is 7%.

Question: CC(C)(C)C(O)C(CCCc1cccc(Cl)c1)n1cncn1 (stereo not shown) was tested. Which “Infection (%) at 600 ppm C2” value did it give?
Answer: The value was 15%.
